Patent publication US10125134B2 (Mirati Therapeutics, Inc., priority 2016, dated 2018)
Where two headings read alike, the source gives them in different places.

What was measured:
[1] = target: KRas G12C (Homo sapiens, UniProt P01116, C118S/C51S/C80L/G12C); assay: KRas G12C Modification Assay (LCMS detection of covalent adduct); assay type: binding; details: normalized percent of control; tested at 5 μM concentration for 3 hours
How it was run: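 Covalent modification was read by reverse-phase LC/MS of intact protein after compound exposure, each reaction stopped at its time point with 25 mM acetic acid. Unmodified-protein signal, taken as percent of total, was normalised to untreated protein and reported as POC.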

[2] = tested on: NCI-H358 cells (express KRas G12C), Phospho-ERK; assay: Cellular inhibition of KRas G12C: Phospho-ERK in NCI-H358 cells; assay type: cell-based; details: Homo sapiens, pERK(Thr202/Tyr204) normalized with GAPDH, NCI-H358 cells, 3 hours, read-out: IC50
How it was run: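 IC50 derived by 4-parameter fit of GAPDH-normalized pERK(Thr202/Tyr204) signal, as percent of DMSO control. Signal came from in-cell immunodetection with infrared secondaries after 3 h compound exposure of KRas G12C NCI-H358 cells at 0.5% DMSO.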

Structure (SMILES)	POC [1]	IC50 ([2]; NCI-H358, 3 h) [nM]	IC50 [2] [nM]
C=CC(=O)N1CCN(c2nc(OC[C@@H]3CCCN3C)nc3c2CCN(c2c(F)ccc4ccccc24)C3)CC1CC#N (stereo partly drawn) [Example 311, 2-(1-acryloyl-4-(7-(2-fluoronaphthalen-1-yl)-2-(((S)-1-methylpyrrolidin-2-yl)methoxy)-5,6,7,8-tetrahydropyrido[3,4-d]pyrimidin-4-yl)piperazin-2-yl)acetonitrile]	C (“C”>50% POC)	0.1 to 1000	–
C=CC(=O)N1CCN(c2nc(OC[C@@H]3C[C@@H](O)CN3C)nc3c2CCN(c2ccccc2C(F)(F)F)C3)CC1CC#N (stereo partly drawn) [Example 312, 2-[4-[2-[[(2S,4R)-4-hydroxy-1-methyl-pyrrolidin-2-yl]methoxy]-7-[2-(trifluoromethyl)phenyl]-6,8-dihydro-5H-pyrido[3,4-d]pyrimidin-4-yl]-1-prop-2-enoyl-piperazin-2-yl]acetonitrile]	C (“C”>50% POC)	0.1 to 1000	–
C=CC(=O)N1CCN(c2nc(OC[C@@H]3CCN(C)C3)nc3c2CCN(c2c(C(F)(F)F)ccc4[nH]ncc24)C3)CC1CC#N (stereo partly drawn) [Example 313, 2-[4-[2-[[(3R)-1-methylpyrrolidin-3-yl]methoxy]-7-[5-(trifluoromethyl)-1H-indazol-4-yl]-6,8-dihydro-5H-pyrido[3,4-d]pyrimidin-4-yl]-1-prop-2-enoyl-piperazin-2-yl]acetonitrile]	C (“C”>50% POC)	–	0.1 to 1000
C=CC(=O)N1CCN(c2nc(OC[C@@H]3CCCN3C)nc3c2CCN(c2cc(OC)cc4ccccc24)C3)C[C@@H]1CC#N [Example 314, 2-[(2S)-4-[7-(3-methoxy-1-naphthyl)-2-[[(2S)-1-methylpyrrolidin-2-yl]methoxy]-6,8-dihydro-5H-pyrido[3,4-d]pyrimidin-4-yl]-1-prop-2-enoyl-piperazin-2-yl]acetonitrile]	C (“C”>50% POC)	0.1 to 1000	–
C=CC(=O)N1CCN(c2nc(OC[C@@H]3C[C@@H](O)CN3C)nc3c2CCN(c2cccc4ccccc24)C3)C[C@@H]1CC#N [Example 315, 2-[(2S)-4-[2-[[(2S,4R)-4-hydroxy-1-methyl-pyrrolidin-2-yl]methoxy]-7-(1-naphthyl)-6,8-dihydro-5H-pyrido[3,4-d]pyrimidin-4-yl]-1-prop-2-enoyl-piperazin-2-yl]acetonitrile]	C (“C”>50% POC)	0.1 to 1000	–
C=CC(=O)N1CCN(c2nc(OC[C@@H]3CCCN3C)nc3c2CCN(c2ccc(F)c4ccccc24)C3)C[C@@H]1CC#N [Example 316, 2-((S)-1-acryloyl-4-(7-(4-fluoronaphthalen-1-yl)-2-(((S)-1-methylpyrrolidin-2-yl)methoxy)-5,6,7,8-tetrahydropyrido[3,4-d]pyrimidin-4-yl)piperazin-2-yl)acetonitrile]	C (“C”>50% POC)	0.1 to 1000	–
C=CC(=O)N1CCN(c2nc(OC[C@@H]3CCCN3C)nc3c2CCN(c2cc(O)cc4ccccc24)C3)C[C@@H]1CC#N [Example 317, 2-((S)-1-acryloyl-4-(7-(3-hydroxynaphthalen-1-yl)-2-(((S)-1-methylpyrrolidin-2-yl)methoxy)-5,6,7,8-tetrahydropyrido[3,4-d]pyrimidin-4-yl)piperazin-2-yl)acetonitrile]	C (“C”>50% POC)	0.1 to 1000	–
C=CC(=O)N1CCN(c2nc(OC[C@H]3CCCN3C)nc3c2CCN(c2ccc(F)c4ccccc24)C3)C[C@@H]1CC#N [Example 318, 2-[(2S)-4-[7-(4-fluoro-1-naphthyl)-2-[[(2R)-1-methylpyrrolidin-2-yl]methoxy]-6,8-dihydro-5H-pyrido[3,4-d]pyrimidin-4-yl]-1-prop-2-enoyl-piperazin-2-yl]acetonitrile]	C (“C”>50% POC)	0.1 to 1000	–
C=CC(=O)N1CCN(c2nc(OC[C@H]3CCCN3C)nc3c2CCN(c2cccc(Cl)c2C(F)(F)F)C3)C[C@@H]1CC#N [Example 319, 2-((S)-1-acryloyl-4-(7-(3-chloro-2-(trifluoromethyl)phenyl)-2-(((R)-1-methylpyrrolidin-2-yl)methoxy)-5,6,7,8-tetrahydropyrido[3,4-d]pyrimidin-4-yl)piperazin-2-yl)acetonitrile]	C (“C”>50% POC)	0.1 to 1000	–
C=CC(=O)N1CCN(c2nc(OC[C@@H]3CCCN3C(C)C)nc3c2CCN(c2cccc4ccccc24)C3)C[C@@H]1CC#N [Example 320, 2-[(2S)-4-[2-[[(2S)-1-isopropylpyrrolidin-2-yl]methoxy]-7-(1-naphthyl)-6,8-dihydro-5H-pyrido[3,4-d]pyrimidin-4-yl]-1-prop-2-enoyl-piperazin-2-yl]acetonitrile]	C (“C”>50% POC)	0.1 to 1000	–
C=CC(=O)N1CCN(c2nc(OC[C@@H]3CCCN3C)nc3c2CCN(c2c(O)cccc2F)C3)[C@@H](C)C1 [Example 321, 1-[(3S)-4-[7-(2-fluoro-6-hydroxy-phenyl)-2-[[(2S)-1-methylpyrrolidin-2-yl]methoxy]-6,8-dihydro-5H-pyrido[3,4-d]pyrimidin-4-yl]-3-methyl-piperazin-1-yl]prop-2-en-1-one]	B (“B”>25% POC−≤50% POC)	> 1000	–
C=CC(=O)N1CCN(c2nc(OC[C@@H]3CCCN3CC)nc3c2CCN(c2ccc(F)c4ccccc24)C3)CC1CC#N (stereo partly drawn) [Example 322, 2-(1-acryloyl-4-(2-(((S)-1-ethylpyrrolidin-2-yl)methoxy)-7-(4-fluoronaphthalen-1-yl)-5,6,7,8-tetrahydropyrido[3,4-d]pyrimidin-4-yl)piperazin-2-yl)acetonitrile]	C (“C”>50% POC)	0.1 to 1000	–
C=CC(=O)N1CCN(c2nc(OC[C@H]3C[C@H](O)CN3C)nc3c2CCN(c2cccc4ccccc24)C3)C[C@@H]1CC#N [Example 323, 2-[(2S)-4-[2-[[(2R,4S)-4-hydroxy-1-methyl-pyrrolidin-2-yl]methoxy]-7-(1-naphthyl)-6,8-dihydro-5H-pyrido[3,4-d]pyrimidin-4-yl]-1-prop-2-enoyl-piperazin-2-yl]acetonitrile]	C (“C”>50% POC)	0.1 to 1000	–
C=CC(=O)N1CCN(c2nc(OC[C@@H]3CCCN3C)nc3c2CCN(c2cccc(OC)c2C)C3)C[C@@H]1CC#N [Example 324, 2-[(2S)-4-[7-(3-methoxy-2-methyl-phenyl)-2-[[(2S)-1-methylpyrrolidin-2-yl]methoxy]-6,8-dihydro-5H-pyrido[3,4-d]pyrimidin-4-yl]-1-prop-2-enoyl-piperazin-2-yl]acetonitrile]	C (“C”>50% POC)	0.1 to 1000	–
C=CC(=O)N1CCN(c2nc(OC[C@@H]3CCCN3C)nc3c2CCN(c2ccccc2C#N)C3)C[C@@H]1CC#N [Example 325, 2-[4-[(3S)-3-(cyanomethyl)-4-prop-2-enoyl-piperazin-1-yl]-2-[[(2S)-1-methylpyrrolidin-2-yl]methoxy]-6,8-dihydro-5H-pyrido[3,4-d]pyrimidin-7-yl]benzonitrile]	C (“C”>50% POC)	> 1000	–
C=CC(=O)N1CCN(c2nc(OC[C@@H]3CCCN3C)nc3c2CCN(c2cccc4ccc(C)cc24)C3)C[C@@H]1CC#N [Example 326, 2-((S)-1-acryloyl-4-(7-(7-methylnaphthalen-1-yl)-2-(((S)-1-methylpyrrolidin-2-yl)methoxy)-5,6,7,8-tetrahydropyrido[3,4-d]pyrimidin-4-yl)piperazin-2-yl)acetonitrile]	C (“C”>50% POC)	0.1 to 1000	–
